The target of one assay is O-acyltransferase (Oryctolagus cuniculus, UniProt G1SFD9). Nature of the assay: Acyl coenzyme A:cholesterol acyltransferase (ACAT), inhibition by incubation with [1-14C]oleolyl-CoA and intestinal microsomes isolated from intestinal mucosa of cholesterol-fed rabbits.
In the next assay the test system is Rattus norvegicus. Nature of the assay: In vivo change in plasma total cholesterol in cholic acid (0.3%)-cholesterol (1.5%)-peanut oil(5.5%) fed rats dosed at 0.05% of diet.
Assay [1] concerns the target T1, Acyl-CoA:cholesterol acyltransferase (Oryctolagus cuniculus) (UniProt Q95214).
T1 sequence (whole entry): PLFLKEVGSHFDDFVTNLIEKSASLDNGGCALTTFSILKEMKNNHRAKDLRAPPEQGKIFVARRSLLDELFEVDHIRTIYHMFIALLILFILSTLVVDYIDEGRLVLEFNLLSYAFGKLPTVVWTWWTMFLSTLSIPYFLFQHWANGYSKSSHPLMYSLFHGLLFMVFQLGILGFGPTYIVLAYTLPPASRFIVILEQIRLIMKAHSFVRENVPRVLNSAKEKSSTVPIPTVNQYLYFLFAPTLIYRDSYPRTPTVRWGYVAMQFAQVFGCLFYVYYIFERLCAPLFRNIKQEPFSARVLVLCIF
In words: Tested in vitro against intestinal Acyl coenzyme A:cholesterol acyltransferase by incubation with [1-14C]oleolyl-CoA in intestinal microsomes isolated from intestinal mucosa of cholesterol-fed rabbits. The conditions noted are these: Microsome, concentration not given here.

The nature of assay [2]: Tested in vivo for plasma total cholesterol(TC) in cholic acid (0.3%)-cholesterol (1.5%)-peanut oil (5.5%) fed rats. The assay is classed as functional.

Sequence of O-acyltransferase (G1SFD9 1-524): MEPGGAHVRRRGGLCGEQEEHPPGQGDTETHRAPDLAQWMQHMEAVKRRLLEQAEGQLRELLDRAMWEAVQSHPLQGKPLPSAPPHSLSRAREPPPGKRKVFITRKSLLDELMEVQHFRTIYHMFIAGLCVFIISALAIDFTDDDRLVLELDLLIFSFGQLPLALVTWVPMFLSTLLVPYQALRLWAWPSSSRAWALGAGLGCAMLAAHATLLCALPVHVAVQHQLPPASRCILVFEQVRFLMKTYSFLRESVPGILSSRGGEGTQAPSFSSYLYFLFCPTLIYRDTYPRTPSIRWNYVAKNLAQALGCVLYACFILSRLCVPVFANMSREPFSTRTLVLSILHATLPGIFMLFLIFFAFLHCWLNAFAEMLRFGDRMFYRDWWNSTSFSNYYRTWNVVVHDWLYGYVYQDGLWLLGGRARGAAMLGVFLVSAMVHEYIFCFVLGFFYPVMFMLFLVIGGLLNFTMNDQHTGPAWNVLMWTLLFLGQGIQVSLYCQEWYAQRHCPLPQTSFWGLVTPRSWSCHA

Usually IC50 stands for the midpoint of a concentration-inhibition curve. As for `CNC(=O)Nc1c(C(C)C)cccc1C(C)C`, on O-acyltransferase, the IC50 was > 5000 nM.
`CCCCCCCC/C=C\CCCCCCCCNC(=O)Nc1c(CC)cccc1C(C)C`: the Change in the assay with Rattus norvegicus was -41%. Moreover, at O-acyltransferase, the IC50 amounted to 37 nM.
With `CCCCCCCCCCCCCCCCCCOC(=O)Nc1c(OC)cc(OC)cc1OC`, at O-acyltransferase, the IC50 amounted to 7100 nM.
The molecule `CCCCCCCC/C=C\CCCCCCCCNC(=S)Nc1c(C)cccc1C` had a half-maximal inhibitory concentration (IC50) at O-acyltransferase of 5400 nM.
Take `CCCCCCCCCCCCCCCCCC(=O)Nc1c(OC)cc(OC)cc1OC`: the Change in the assay with Rattus norvegicus was -11%.
Regarding `CCCCCCCCCCCCCCCCCCSc1c(C)cccc1C`, on O-acyltransferase, the IC50 is > 10000 nM.
As for `CCCCCCCCCCC(C)(C)NC(=O)Nc1c(CC)cccc1CC`, the Change in the assay with Rattus norvegicus was -60%. For the same molecule, on O-acyltransferase, the IC50 was determined as 52 nM.
For `CCCCCCCCCCC(C)(C)CNC(=O)Nc1c(C(C)C)cccc1C(C)C`, the IC50 against O-acyltransferase worked out at 47 nM.
On the same count and under the same terms, for `CCCCCCCCCCC1(NC(=O)Nc2c(CC)cccc2CC)CCCC1` the value was 110 nM; for `CCCCCCCCCCCCCCCCCCNC(=O)Oc1c(C)cccc1C`, 3100 nM.
On to `CCCCCCCC/C=C\CCCCCCC/C(S)=N/c1c(OC)cc(OC)cc1OC`, for which the Change with Rattus norvegicus is -22%. This molecule also gave an IC50 at O-acyltransferase of 900 nM.
Turning to `CCCCCCCCCCCCCCCCCC(=O)Oc1c(C)cccc1C`, the IC50 against O-acyltransferase is > 10000 nM.
Still for that read-out and setting: the value for `CCCCCCCCCCCCCCCCCC[S+]([O-])c1c(C)cccc1C` (configuration not stated) was > 10000 nM.
Same read-out and setting: for `CCCCCCCCCC(C)(C)CNC(=O)Nc1c(C(C)C)cccc1C(C)C` the value was 46 nM; for `CCCCCCCCCCCCCCCCCCOc1c(C)cccc1C`, > 10000 nM; for `CCCCCCCC/C=C\CCCCCCCCNCc1c(OC)cc(OC)cc1OC`, > 100000 nM.
Still for that read-out and setting: for `CCCCCCCC/C=C\CCCCCCCCNC(=O)Nc1ccc(F)cc1F` the value was 4700 nM; for `CCCCCCCCCCCCCCCCCCNC(=O)Nc1c(C)cccc1C`, 610 nM; for `CCCCCCCC/C=C\CCCCCCCCOC(=O)c1c(OC)cc(OC)cc1OC`, > 5000 nM.
The molecule `CCCCCCCCCCCCCCNC(=O)Nc1c(Br)cc(CC)cc1Br` had an IC50 against O-acyltransferase of 520 nM.
On the same count and under the same terms, for `CCCCCCCC/C=C\CCCCCCCCNC(=O)Nc1ccc(Oc2ccccc2)cc1` the value was > 5000 nM.
Regarding `CCCCCCCCCCCCCCNC(=O)Nc1ccc(F)cc1F`, at O-acyltransferase, the IC50 turned out to be 340 nM.
`CCCCCCCCCCNC(=O)Nc1c(CC)cccc1C(C)C`: the Change with Rattus norvegicus is -61%. The molecule further returned an IC50 on O-acyltransferase of 87 nM.
For `CCCCCCCCCCCCCCCCC(C)(C)CNC(=O)Nc1c(C(C)C)cccc1C(C)C`, the IC50 at O-acyltransferase came out at 73 nM.
With `CCCCCCCC/C=C\CCCCCCCCNC(=O)Nc1c(C)cc(C)cc1C`, at O-acyltransferase, the IC50 was 2900 nM.
Take `CCCCCCCCCCC(C)(C)NC(=O)Nc1c(C(C)C)cccc1C(C)C`: in the assay with Rattus norvegicus, the Change was -60%. It took 45 nM to reach half-maximal inhibition on O-acyltransferase (IC50).
The molecule `CCCCCCNC(=O)Nc1c(C(C)C)cccc1C(C)C` displayed an IC50 against O-acyltransferase of 99 nM.
On to `CCCCCCCC/C=C\CCCCCCCCNC(=O)Nc1c(C(C)C)cccc1C(C)C`, for which the Change in the assay with Rattus norvegicus is -45%. This molecule registered a half-maximal inhibitory concentration (IC50) at O-acyltransferase of 28 nM.
`CCCCCCCCCCCCCCCCCCNC(=O)Nc1c(C)cccc1Cl` came in with an IC50 against O-acyltransferase of 1100 nM.
On the same count and under the same terms, for `CCCCCCCCCCNC(=O)Nc1c(CC)cccc1CC` the value was 100 nM.
Turning to `CCCCCCCCCCNC(=O)Nc1c(C(C)C)cccc1C(C)C`, the Change in the assay on Rattus norvegicus is -64%. Inhibition against O-acyltransferase was half-maximal at 56 nM (IC50).
Take `CCCCCCCCCCCCCCCCCCNC(=O)NCc1c(OC)cc(OC)cc1OC`: the IC50 against O-acyltransferase is > 5000 nM.
`CCCCCCCC/C=C\CCCCCCCCNC(=O)Nc1c(CC)cccc1CC`: the Change in the assay with Rattus norvegicus is -26%. The same molecule showed an IC50 at O-acyltransferase of 43 nM.
With `CCCCCCCCCCCCCCCCCCNC(=O)Sc1c(C)cccc1C`, the IC50 against O-acyltransferase came out at 2460 nM.
Take `CCCCCCCC/C=C\CCCCCCCCNC(=O)Nc1ccccc1`: on O-acyltransferase, the IC50 is > 5000 nM.
As to `CCCCCCCC/C=C\CCCCCCCCNC(=O)Nc1c(C)cccc1Cl`, the Change with Rattus norvegicus was -42%. Besides, the IC50 on O-acyltransferase is 180 nM.
On the same counts, the results for `CCCCCCCC/C=C\CCCCCCCCNC(=O)Nc1ccccc1CC` are -28% and 980 nM.
In the case of `CCCCCCCC/C=C\CCCCCCCC(=O)c1c(OC)cc(OC)cc1OC`, the IC50 against O-acyltransferase is > 50000 nM.
Same read-out and setting: for `CCCCCCCC/C=C\CCCCCCCCNC(=O)c1c(C)cccc1C` the value was 9800 nM.
On the same count and under the same terms, for `CCCCCCCCCCCCCCCCCCNC(=O)c1c(C)cccc1C` the value was > 10000 nM.
Still for that read-out and setting: the value for `CCCCCCCCCCCCCCCCCCNC(=O)Nc1c(OC)cc(OC)cc1OC` was 900 nM.
For the molecule `CCCCCCCCCCC1(NC(=O)Nc2c(C(C)C)cccc2C(C)C)CCCC1`, in the assay with Rattus norvegicus, the Change is -53%. On O-acyltransferase, this molecule showed an IC50 of 46 nM.
On to `CCCCCCCCCCCCCCCCS(=O)(=O)Nc1c(OC)cc(OC)cc1OC`, for which, on O-acyltransferase, the IC50 amounted to 690 nM.
Same read-out and setting: the value for `CCCCCCCCCCC(CC)(CC)CNC(=O)Nc1c(C(C)C)cccc1C(C)C` was 50 nM.
The same measure, in the same setting: for `CCCCCCCC/C=C\CCCCCCCCNC(=O)Nc1ccc(C)cc1C` the value was > 5000 nM.
One may read the inhibition as the change of the read-out against control, counted positive when it falls. Molecule `CCCCCCCC/C=C\CCCCCCCC(O)c1c(OC)cc(OC)cc1OC` (configuration not stated) had an inhibition in assay [1] of 6%.
In the case of `CCCCCCCC/C=C\CCCCCCCCNC(=O)Nc1c(OC)cc(OC)cc1OC`, at O-acyltransferase, 320 nM corresponded to half-maximal inhibition (IC50). Further, the Change in assay [2] is on record as -25%.
For `CCCCCCCCCCCCCCCCCCOC(=O)Nc1c(C)cccc1C`, at O-acyltransferase, the IC50 was > 10000 nM.
At O-acyltransferase, `CCCCCCCCCCNC(=O)Nc1c(C)cccc1C(C)C` showed an IC50 of 210 nM.
Same read-out and setting: the value for `CCCCNC(=O)Nc1c(C(C)C)cccc1C(C)C` was 630 nM; that for `CCCCCCCC/C=C\CCCCCCCCOC(=O)Nc1c(OC)cc(OC)cc1OC` was 860 nM; that for `CCCCCCCC/C=C\CCCCCCCC(=O)Oc1c(C)cccc1C` was > 10000 nM.
The same measure, in the same setting: for `CCCCCCCCCCC(C)(C)NC(=O)Nc1ccccc1CC` the value was 500 nM; for `CCCCCCCCCCNC(=O)Nc1c(C)cccc1C(C)(C)C`, 200 nM.
Still for that read-out and setting: for `CCCCCCCC/C=C\CCCCCCCC(=O)NCc1c(OC)cc(OC)cc1OC` the value was 6800 nM.
At O-acyltransferase, `CCCCCCCC/C=C\CCCCCCCCNC(=O)Nc1c(Cl)cc(Cl)cc1Cl` yielded an IC50 of 1200 nM.
On to `CCCCCCCCCCCCCCCCCCNC(=O)Nc1c(C(C)C)cccc1C(C)C`, for which the Change with Rattus norvegicus is -7%. The molecule also had an IC50 on O-acyltransferase of 48 nM.
`CCCCCCCC/C=C\CCCCCCCCNC(=O)Nc1ccccc1OC` came in with an IC50 against O-acyltransferase of 3300 nM.
On to `CCCCCCCCCCCCCCNC(=O)Nc1c(C)cccc1Cl`, for which the Change in the assay with Rattus norvegicus worked out at 0%. The same molecule yielded an IC50 against O-acyltransferase of 70 nM.
Consider `CCCCCCCCCCCCCCNC(=O)Nc1cccc(C(F)(F)F)c1`, for which the IC50 at O-acyltransferase is > 2500 nM.
Regarding `CCCCCCCCCCCCCCNC(=O)Nc1c(CC)cccc1CC`, the Change in the assay with Rattus norvegicus was -38%. The IC50 at O-acyltransferase is 21 nM.
For the molecule `CCCCCCCC/C=C\CCCCCCCCNC(=O)Nc1cc(C)ccc1C`, on O-acyltransferase, inhibition was half-maximal at 4500 nM (IC50).
On the same count and under the same terms, the value for `CCCCCCCCCCCCCCCCCCSC(=O)Nc1c(C)cccc1C` was > 10000 nM; that for `CCCCCCCC/C=C\CCCCCCCCNC(=O)c1c(OC)cc(OC)cc1OC` was 9400 nM.
Turning to `CCCCCCCCCCCCCCNC(=O)Nc1c(CC)cccc1C(C)C`, the Change in the assay on Rattus norvegicus is -41%. This molecule displayed an IC50 at O-acyltransferase of 18 nM.
`CCCCCCCCCCCCCCCCCCSC(=O)Nc1c(OC)cc(OC)cc1OC` gave an IC50 at O-acyltransferase of 5700 nM.
For the molecule `CCCCCCCC/C=C\CCCCCCCC(=O)Nc1c(C)cccc1C`, the Change in the assay on Rattus norvegicus is -38%.
On to `CCCCCCCC/C=C\CCCCCCCCNC(=O)Nc1c(Cl)cccc1Cl`, for which the Change in the assay on Rattus norvegicus was -47%. For the same molecule, the IC50 against O-acyltransferase was found to be 400 nM.
Take `CCCCCCCC/C=C\CCCCCCCCNC(=O)Nc1c(C)cccc1C`: the Change in the assay on Rattus norvegicus is -55%. This molecule also registered an IC50 against O-acyltransferase of 160 nM.
`CCCCCCCC/C=C\CCCCCCCCNC(=O)Nc1ccc(OC)cc1OC` returned an IC50 at O-acyltransferase of 5400 nM.
In the case of `CCCCCCCC/C=C/CCCCCCCC(=O)Nc1c(OC)cc(OC)cc1OC`, in the assay with Rattus norvegicus, the Change was -38%. The molecule further showed an IC50 at O-acyltransferase of 44 nM.
At O-acyltransferase, `CCCCCCCCCCCCCCNC(=O)Nc1c(F)cc(F)cc1F` had an IC50 of 250 nM.
For the molecule `CCCCCCCC/C=C\CCCCCCCC/N=C(\S)Nc1c(C)cccc1C`, the Change with Rattus norvegicus was -17%.
